# From article PMC12670118 (Chemical Science, 2025)
# Columns and labels:
# p-STING = experiment: Immunohistochemistry of primary tumor tissue; assay type: in vivo, mouse; settings: 5 mg kg^−1 intratumoral, IHC
# 4T1 cells = experiment: MTT antiproliferative assay, 4T1; assay type: cell-based, mouse; settings: read-out: Cytotoxicity IC50, 4T1, 72 h
# MCF-7 cells = experiment: MTT antiproliferative assay, MCF-7; assay type: cell-based, human; settings: read-out: Cytotoxicity IC50, MCF-7, 72 h
# MCF-10A cells = experiment: MTT antiproliferative assay, MCF-10A; assay type: cell-based, human; settings: read-out: Cytotoxicity IC50, 72 h
# MDA-MB-231 cells = experiment: MTT antiproliferative assay, MDA-MB-231; assay type: cell-based, human; settings: read-out: Cytotoxicity IC50, MDA-MB-231, 72 h
# HeLa cells = experiment: MTT antiproliferative assay, HeLa; assay type: cell-based; settings: read-out: Cytotoxicity IC50, 72 h
compound,measurement,setting,value
N.N.[Cl][Pt][Cl] [Cisplatin],Expression of p-STING on primary tumors,p-STING,can't activate the STING pathway in vivo
same,IC50,4T1 cells,25.5 ± 2.52 µM
same,IC50,MCF-7 cells,18.3 ± 5.74 µM
same,IC50,MCF-10A cells,15.5 ± 4.33 µM
same,IC50,MDA-MB-231 cells,20.2 ± 5.6 µM
same,IC50,HeLa cells,8.35 ± 0.86 µM
